Reference: patent US9133204B2, “5-membered heterocyclic amides and related compounds” (H. Lundbeck A/S, priority 2007, dated 2015)

Target: T1, P2X7 receptor (Homo sapiens, UniProt Q99572)
T1 construct: host or cells: SH-SY5Y
T1 sequence (Q99572 1-595): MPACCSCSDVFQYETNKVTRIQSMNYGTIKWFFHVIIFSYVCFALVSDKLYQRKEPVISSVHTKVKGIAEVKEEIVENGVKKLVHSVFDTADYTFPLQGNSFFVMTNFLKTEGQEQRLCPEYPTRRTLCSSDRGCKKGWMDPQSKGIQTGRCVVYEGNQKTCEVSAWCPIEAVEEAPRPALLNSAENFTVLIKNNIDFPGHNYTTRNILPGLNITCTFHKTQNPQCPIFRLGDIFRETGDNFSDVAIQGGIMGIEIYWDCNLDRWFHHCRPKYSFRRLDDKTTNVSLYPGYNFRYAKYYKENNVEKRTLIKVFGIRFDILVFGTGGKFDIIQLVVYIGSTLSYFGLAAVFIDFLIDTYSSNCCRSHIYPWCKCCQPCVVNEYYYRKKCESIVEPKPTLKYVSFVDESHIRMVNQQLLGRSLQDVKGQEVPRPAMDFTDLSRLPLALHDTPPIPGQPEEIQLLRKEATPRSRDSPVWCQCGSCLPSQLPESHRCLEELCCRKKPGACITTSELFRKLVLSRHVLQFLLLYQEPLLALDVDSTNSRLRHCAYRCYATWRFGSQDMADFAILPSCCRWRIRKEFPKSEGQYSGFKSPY
Assay: High throughput P2X7 calcium mobilization assay (Example 4A)
Format: cell-based
Conditions: SH-SY5Y cells, 50% decrease in fluorescence response of cells exposed to 80 μM BzATP
In short: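 Calcium mobilization read by FLIPR as peak fluorescence over 2 min after adding BzATP to a final 80 μM (about EC50). Beforehand, Fluo-4 AM-loaded SH-SY5Y cells sat 1 h at room temperature with compound at 1–2500 nM in pH 7.4 sucrose/HEPES buffer; signal minus no-agonist wells.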

[1] = flag after the MS data in Examples 1-2

IC50 (Table I) [nM]	IC50 [1] [nM]	Structure (SMILES)
≤ 2000	–	CC(C)c1nn(-c2nccs2)cc1C(=O)NCC12CC3CC(CC(C3)C1)C2 [Compound 133, N-(adamantan-1-ylmethyl)-3-isopropyl-1-(1,3-thiazol-2-yl)-1H-pyrazole-4-carboxamide]
≤ 2000	–	Nc1cncc(-n2cc(C(=O)NCC34CC5CC(CC(C5)C3)C4)c(C(F)(F)F)n2)n1 [Compound 137, N-(adamantan-1-ylmethyl)-1-(6-aminopyrazin-2-yl)-3-(trifluoromethyl)-1H-pyrazole-4-carboxamide]
≤ 2000	–	Cc1nn(-c2ncc(F)cn2)cc1C(=O)NCC(CC(C)C)c1ccc(Cl)cc1 (stereo not drawn) [Compound 114, N-[2-(4-chlorophenyl)-4-methylpentyl]-1-(5-fluoropyrimidin-2-yl)-3-methyl-1H-pyrazole-4-carboxamide]
≤ 2000	–	Nc1nccnc1-n1cc(C(=O)NCC2(c3cccnc3)CCCCC2)c(C(F)(F)F)n1 [Compound 157, 1-(3-aminopyrazin-2-yl)-N-[(1-pyridin-3-ylcyclohexyl)methyl]-3-(trifluoromethyl)-1H-pyrazole-4-carboxamide]
≤ 2000	–	O=C(NCC1(c2cccnc2)CCCCC1)c1sc(-c2cnccn2)nc1C(F)(F)F [Compound 316, 2-pyrazin-2-yl-N-[(1-pyridin-3-ylcyclohexyl)methyl]-4-(trifluoromethyl)-1,3-thiazole-5-carboxamide]
≤ 2000	–	CC(C)CC(CNC(=O)c1cn(-c2ncc(F)c(N)n2)nc1C(F)(F)F)c1cccnc1 (stereo not drawn) [Compound 139, 1-(4-amino-5-fluoropyrimidin-2-yl)-N-(4-methyl-2-pyridin-3-ylpentyl)-3-(trifluoromethyl)-1H-pyrazole-4-carboxamide]
≤ 2000	–	Cc1nn(-c2ncc(F)c(N)n2)cc1C(=O)NCC(CC(C)C)c1ccc(Cl)cc1 (stereo not drawn) [Compound 113, 1-(4-amino-5-fluoropyrimidin-2-yl)-N-[2-(4-chlorophenyl)-4-methylpentyl]-3-methyl-1H-pyrazole-4-carboxamide]
≤ 2000	–	Cc1nn(-c2ncc(F)c(N)n2)cc1C(=O)NCC12CC3CC(CC(C3)C1)C2 [Compound 110, N-(adamantan-1-ylmethyl)-1-(4-amino-5-fluoropyrimidin-2-yl)-3-methyl-1H-pyrazole-4-carboxamide]
≤ 2000	–	CCCC(CNC(=O)c1sc(-c2ncccn2)nc1CC)c1ccc(Cl)cc1 (stereo not drawn) [Compound 277, N-[2-(4-chlorophenyl)pentyl]-4-ethyl-2-pyrimidin-2-yl-1,3-thiazole-5-carboxamide]
≤ 2000	–	O=C(NCC(c1ccc(Cl)cc1)N1CCCC1)c1sc(-c2ncccn2)nc1C(F)(F)F (stereo not drawn) [Compound 286, N-[2-(4-chlorophenyl)-2-pyrrolidin-1-ylethyl]-2-pyrimidin-2-yl-4-(trifluoromethyl)-1,3-thiazole-5-carboxamide]
≤ 2000	–	Cc1cnc(-n2cc(C(=O)NCC(CC(C)C)c3ccc(C(F)(F)F)cc3)c(C)n2)nc1N (stereo not drawn) [Compound 115, 1-(4-amino-5-methylpyrimidin-2-yl)-3-methyl-N-{4-methyl-2-[4-(trifluoromethyl)phenyl]pentyl}-1H-pyrazole-4-carboxamide]
≤ 2000	–	O=C(NCC1(c2cccnc2)CCCCC1)c1sc(-c2cccnc2)nc1C(F)(F)F [Compound 164, 2-pyridin-3-yl-N-[(1-pyridin-3-ylcyclohexyl)methyl]-4-(trifluoromethyl)-1,3-thiazole-5-carboxamide]
≤ 2000	–	Cc1cnc(-n2cc(C(=O)NCC34CC5CC(CC(C5)C3)C4)c(C)n2)nc1-c1ncccn1 [Compound 122, N-(adamantan-1-ylmethyl)-3-methyl-1-(5′-methyl-2,4′-bipyrimidin-2′-yl)-1H-pyrazole-4-carboxamide]
≤ 2000	–	O=C(NCCC12CC3CC(CC(C3)C1)C2)c1cn(-c2ncccn2)nc1C(F)(F)F [Compound 193, N-(2-adamantan-1-ylethyl)-1-pyrimidin-2-yl-3-(trifluoromethyl)-1H-pyrazole-4-carboxamide]
≤ 2000	–	CC(C)c1nn(-c2ncc(F)c(N)n2)cc1C(=O)NCC12CC3CC(CC(C3)C1)C2 [Compound 126, N-(adamantan-1-ylmethyl)-1-(4-amino-5-fluoropyrimidin-2-yl)-3-isopropyl-1H-pyrazole-4-carboxamide]
≤ 2000	–	Cc1cnc(-n2cc(C(=O)NCC3(c4ccc(C(F)(F)F)cc4)CCCCC3)c(C(F)(F)F)n2)nc1N [Compound 172, 1-(4-amino-5-methylpyrimidin-2-yl)-3-(trifluoromethyl)-N-({1-[4-(trifluoromethyl)phenyl]cyclohexyl}methyl)-1H-pyrazole-4-carboxamide]
≤ 2000	–	O=C(NCC12CC3CC(CC(C3)C1)C2)c1cn(-c2cnccn2)nc1C(F)(F)F [Compound 136, N-(adamantan-1-ylmethyl)-1-pyrazin-2-yl-3-(trifluoromethyl)-1H-pyrazole-4-carboxamide]
≤ 2000	–	Cc1cnc(-n2cc(C(=O)NCC34CC5CC(CC(C5)C3)C4)c(C(C)C)n2)nc1N [Compound 100, N-(adamantan-1-ylmethyl)-1-(4-amino-5-methylpyrimidin-2-yl)-3-isopropyl-1H-pyrazole-4-carboxamide]
≤ 2000	–	Cc1nn(-c2ncc(F)c(N)n2)cc1C(=O)NCC(CC(C)C)c1ccc(C(F)(F)F)cc1 (stereo not drawn) [Compound 116, 1-(4-amino-5-fluoropyrimidin-2-yl)-3-methyl-N-{4-methyl-2-[4-(trifluoromethyl)phenyl]pentyl}-1H-pyrazole-4-carboxamide]

The next lines start with the compound.

Structure (SMILES)	IC50 (Table I) [nM]	IC50 [1] [nM]
CNc1nc(-n2cc(C(=O)NCC34CC5CC(CC(C5)C3)C4)c(C)n2)ncc1C [Compound 92, N-(adamantan-1-ylmethyl)-3-methyl-1-[5-methyl-4-(methylamino)pyrimidin-2-yl]-1H-pyrazole-4-carboxamide]	≤ 2000	–
Cc1nc(-c2cccnc2)sc1C(=O)NCC1(c2ccc(Cl)cc2)CCCCC1 [Compound 29, N-{[1-(4-Chlorophenyl)cyclohexyl]methyl}-4-methyl-2-pyridin-3-yl-1,3-thiazole-5-carboxamide]	–	≤ 2000
CCCc1ccc(C(=O)NCC23CC4CC(CC(C4)C2)C3)s1 [Compound 78, N-(1-adamantylmethyl)-5-propylthiophene-2-carboxamide]	≤ 2000	–
Cc1nc(-c2cccnc2)sc1C(=O)NCC(CC(C)C)c1ccc(C(F)(F)F)cc1 (stereo not drawn) [Compound 30]	–	≤ 2000
Cc1ccc(C2(CNC(=O)c3sc(-c4cccnc4)nc3C)CCCCC2)cn1 [Compound 40, N-{[1-(6-methylpyridin-3-yl)cyclohexyl]methyl}-4-methyl-2-pyridin-3-yl-1-,3-thiazole-5-carboxamide]	–	≤ 2000
Cc1cnc(-n2cc(C(=O)NCC34CC5CC(CC(C5)C3)C4)c(C)n2)nc1-c1ccccc1 [Compound 93, N-(adamantan-1-ylmethyl)-3-methyl-1-(5-methyl-4-phenylpyrimidin-2-yl)-1H-pyrazole-4-carboxamide]	≤ 2000	–
Nc1nc(-n2cc(C(=O)NCC3(c4cccnc4)CCCCC3)c(C(F)(F)F)n2)ncc1F [Compound 2, 1-(4-Amino-5-fluoropyrimidin-2-yl)-N-((1-(pyridin-3-yl)cyclohexyl)methyl)-3-(trifluoromethyl)-1H-pyrazole-4-carboxamide]	–	≤ 2000
Cc1ccc(C(CNC(=O)c2sc(-c3cccnc3)nc2C)CC(C)C)cc1 (stereo not drawn) [Compound 33, N-[4-methyl-2-(4-methylphenyl)pentyl}-4-methyl-2-pyridin-3-yl-1,3-thiazole-5-carboxamide]	–	≤ 2000
Cc1ccc(-n2cc(C(=O)NCC34CC5CC(CC(C5)C3)C4)c(C)n2)nc1 [Compound 97, N-(adamantan-1-ylmethyl)-3-methyl-1-(5-methylpyridin-2-yl)-1H-pyrazole-4-carboxamide]	≤ 2000	–
Nc1nn(-c2ncccn2)cc1C(=O)NCC12CC3CC(CC(C3)C1)C2 [Compound 6, N-(Adamantan-1-ylmethyl)-3-amino-1-pyrimidin-2-yl-1H-pyrazole-4-carboxamide]	–	≤ 2000
Cn1nc(C(F)(F)F)cc1-c1ccc(C(=O)NCC23CC4CC(CC(C4)C2)C3)s1 [Compound 80, N-(1-adamantylmethyl)-5-[1-methyl-3-(trifluoromethyl)-1H-pyrazol-5-yl]thiophene-2-carboxamide]	≤ 2000	–
Cc1nc(N2CCNCC2)sc1C(=O)NCC12CC3CC(CC(C3)C1)C2 [Compound 72, N-(adamantan-1-ylmethyl)-4-methyl-2-piperazin-1-yl-1,3-thiazole-5-carboxamide]	≤ 2000	–
O=C(NCC1(c2ccc(C(F)(F)F)cc2)CCCCC1)c1cn(-c2ncccn2)nc1Cl [Compound 10, 3-Chloro-1-pyrimidin-2-yl-N-({1-[4-(trifluoromethyl)phenyl]cyclohexyl}methyl)-1H-pyrazole-4-carboxamide]	–	≤ 2000
O=C(NCC(c1ccc(Cl)cc1)N1CCCCC1)c1sc(-c2ncccn2)nc1C(F)(F)F (stereo not drawn) [Compound 23, N-[2-(4-chlorophenyl)-2-piperidin-1-ylethyl]-2-pyrimidin-2-yl-4-(trifluoromethyl)-1,3-thiazole-5-carboxamide]	–	≤ 2000
